Where two headings read alike, the source gives them in different places.
Tests used:
[1] = test system: 5-HT2cR mRNA; assay: Editing profile of 5-HT2cR mRNA isoforms by CE-SSCP (nested PCR) in SH-SY5Y cells; enzyme activity indexes worked out from the profile; type: cell-based, human; settings: Homo sapiens, SH-SY5Y, 10 micromolar, 24 hours
[2] = test system: ADAR1a mRNA; assay: Q-PCR of ADAR1a mRNA expression in SH-SY5Y cells; type: cell-based; settings: Homo sapiens, 10 micromolar, 24 hours, read-out: QPCR: RNA expresion (% of variation) ADAR1a
Text: ADAR1a RNA Expression in SH-SY5Y cells (Q-PCR, Applied TaqMan probes ref: Hs 01020780_m1).
(§1) The SH-SY5Y Human neuroblastoma cell line was purchased from ECACC (EC94030304 from the European Collection of Cell Cultures (ECACC)). The cell line SH-SY5Y is a thrice-cloned neuroblastoma, originally from SK-N-SH and first reported in 1978. A neuroblast-like subclone of SK-N-SH, named SH-SY, was subcloned as SH-SY5, which was subcloned again as SH-SY5Y (Biedler J L et al. Cancer Res. 1978; 38:3751-7). Cells were cultured in high glucose D-MEM medium (Sigma, ref D6546) supplemented with 10% dialysed FCS (PAA, ref. A15-507, lot A50708-0050), 2 mM Glutamine (Sigma, G7513) and a 1× mix of Antibiotic-Antimycotic Stabilized (Sigma, ref. A5955) at 37° C. under a humidified atmosphere of 5% CO2. The day preceeding drug or hIFNα treatment, SH-SY5Y cells were plated in 6-well plates at a density of 10^6 cells/well. One 6-well plate was used per experimental condition (concentration or treatment duration). The day after plating, culture medium was removed and cells were incubated for 24 hours with a 10 μM solution of the compound to be tested molecules or a 1000 IU/ml solution of hIFNα (PBL biomedical laboratories). For hIFNα dose-response experiment cells were incubated with 1, 10, 100, and 1000 IU/ml of hIFNα solutions. For hIFNα time-course experiment cells were treated for 24, 48, or 72 hours with a 1000 IU/ml solution of hIFNα. After the different treatments, cells were directly lysed in RLT lysis buffer and total RNA purified according to manufacturer's protocol (Qiagen, RNeasy Plus mini kit, ref. 74134). Total RNA was then reverse transcribed with Thermoscript RT-PCR system Plus Taq (Invitrogen, 11146-032) and the resulting cDNA used for CE-SSCP and quantitative real-time PCR.
(§2) In order to quantify levels of 5-HT2CR, ADAR1 and ADAR2 mRNA expression in SH-SY5Y cells or in prefrontal cortex, total blood and skin of Balb/cJ mice, first-strand cDNA was synthesized by reverse transcription and subjected to TaqMan quantitative real-time PCR analysis (Applied Biosystems). All probes and primers used for the quantitative PCRs were from Applied Bio systems (Gene Expression Assays, Assay-On-Demand) (see Table 1, Applied Biosystems primers and probes references): […]
(§3) Human GAPDH (product no. 4326317E; Applied Biosystems) or mouse GAPDH (product no. 4352339E; Applied Biosystems) were included in each multiplex PCR as an internal control. Real-time PCR and subsequent analysis were performed with a 48-well block StepOne RT PCR system (Applied Biosystems). Quantification of target gene expression in all samples was normalized to GAPDH expression by the equation Ct (target)−Ct (GAPDH)=ΔCt, where Ct is the threshold cycle number. The mean ΔCt value of samples from untreated mice or cells was determined and used as a reference point for the samples corresponding to treated animals or cells. Differences between untreated and treated animals or cells, including individual variation were calculated by the equation (ΔCt (individual treated samples)−ΔCt (mean of untreated samples)=ΔΔCt). Changes in target gene expression (n-fold) in each sample were calculated by 2^−ΔΔCt, from which the means and standard deviations (SD) were derived.
(§4) The SH-SY5Y Human neuroblastoma cell line was purchased from ECACC. Cells were cultured in high glucose D-MEM medium (Sigma, ref. D6546) supplemented with 10% dialysed FCS (PAA, ref. A15-507, lot A50708-0050), 2 mM Glutamine (Sigma, ref. G7513) and a 1× mix of Antibiotic-Antimycotic Stabilized (Sigma, ref. A5955) at 37° C. under a humidified atmosphere of 5% CO2. The day preceeding hIFNα or drug treatment, SH-SY5Y cells were plated in 6-well plates (Corning, Multiwell Plate, 6 well, Corning CellBIND Surface, ref 3335) at a density of 5; 7 or 9·10^6 cells/well for a 72-, 48- or 24-hour treatment respectively. Six or eight wells of 6-well plates were used per experimental condition (control, concentration or treatment duration).

[3] = test system: ADAR1b mRNA; assay: Q-PCR of ADAR1b mRNA expression in SH-SY5Y cells; type: cell-based; settings: Homo sapiens, 10 micromolar, 24 hours, read-out: QPCR: RNA expresion (% of variation) ADAR1b
Procedure: as §1, §2, §3, §4

[4] = test system: ADAR2 mRNA; assay: Q-PCR of ADAR2 mRNA expression in SH-SY5Y cells; type: cell-based; settings: Homo sapiens, 10 micromolar, 24 hours, read-out: QPCR: RNA expresion (% of variation) ADAR2
Procedure: as §1, §2, §3, §4

[5] = read-out: ENZYME ACTIVIY INDEX (% of variation) ADAR1
[6] = read-out: ENZYME ACTIVIY INDEX (% of variation) ADAR1 + 2
[7] = read-out: ENZYME ACTIVIY INDEX (% of variation) ADAR2
[8] = read-out: ENZYME ACTIVIY INDEX (% of variation) ADARI
[9] = read-out: ENZYME ACTIVIY INDEX (% of variation) ADARII
[10] = read-out: ENZYME ACTIVIY INDEX (% of variation) NE

Compound	activation at 10 µM [1, 5]	activation at 10 µM [1, 6]	activation at 10 µM [1, 7]	activation at 10 µM [1, 8]	activation at 10 µM [1, 9]	activation at 10 µM [1, 10]	% change in ADAR1a mRNA expression at 10 µM [2]	percent change in mRNA expression at 10 µM [3]	percent change in ADAR2 mRNA expression at 10 µM [4]
O=c1n(CCCN2CCN(c3cccc(Cl)c3)CC2)nc2ccccn12 [Trazodone]	0%	89.3%	28.4%	12.9%	77.7%	13.4%	-60%	-40%	5%
NS(=O)(=O)Cc1noc2ccccc12 [Zonisamide]	11.9%	9.7%	-7.8%	11.5%	6.3%	-10.5%	-24%	-19%	-23%

From patent US8771953B2, “Evaluation of the potential risk of drug induced mood disturbance and suicide: use of a dedicated platform” (Biocortech, priority 2008, dated 2014)
